From patent publication US7414048B2, “4,5-dihydro-isoxazole derivatives and their pharmaceutical use” (Janssen Pharmaceutica, N.V., priority 1998, dated 2008) come the findings set out here.

The subject of one assay is T cell blast formation in human blood. Nature of the assay: In vitro inhibition of T cell blast formation in human blood (human whole blood blast formation, PHA stimulated, flow cytometry). To be noted: Test Dose 1 × 10^−5 (unit not given), 72 hours, mean where multiple measurements. The format is cell-based. Here is the method:
Cells are collected after a 72 hours culture period at 37° C., supernatant is removed by centrifugation and red blood cells are lysed by a hypotonic buffer. The remaining white blood cells are collected in PBS containing propidium iodide. The blast formation is analyzed using a benchtop flow cytometer (Cytoron, Ortho) equipped with an argon-ion laser. […] When multiple measurements were performed, a mean value was calculated for the percentage inhibition of T cell blast formation.
A general note: A flow cytometer gives signals particle by particle.
Consider `O=C(Nc1ccc(Oc2ccccc2)cc1)C1CC(c2cccnc2)=NO1` (centres unmarked) [Compound 36], for which the “% Inhibition of T cell blast formation” value is recorded as 85%.

The same assay, now with this note: Test Dose 1 × 10^−6 (unit not given), 72 hours, mean where multiple measurements.
In the case of `C#CC(O)(c1ccccc1)c1ccc(NC(=O)C2CC(c3cccnc3)=NO2)cc1` (racemic) [Compound 69, [B(R)]±[B(S)]-4,5-dihydro-N-[4-(1-hydroxy-1-phenyl-2-propynyl)phenyl]-3-(3-pyridinyl)-5-isoxazolecarboxamide], the “% Inhibition of T cell blast formation” value stood at 73%.

For `C=CCOc1ccccc1/C=C/C(=O)c1ccc(NC(=O)C2CC(c3cccnc3)=NO2)cc1` (racemic) [Compound 470], the “% Inhibition of T cell blast formation” value came out at 87%.

On to `COc1ccc(/C=C/C(=O)c2ccc(NC(=O)C3CC(c4cccnc4)=NO3)cc2)c(C)c1C` (racemic) [Compound 479], for which the “% Inhibition of T cell blast formation” value was found to be 85%.

For the molecule `O=C(Nc1ccc(C(O)(c2ccccc2)c2ccccn2)cc1)C1CC(c2cccnc2)=NO1` (single isomer, unassigned) [Compound 68], the “% Inhibition of T cell blast formation” value worked out at 61%.

Take `O=C(c1ccc(NC(=O)C2CC(c3cccnc3)=NO2)cc1)c1ccccn1` (single isomer, unassigned) [Compound 394]: the “% Inhibition of T cell blast formation” value is 84%.

Turning to `O=C(Nc1ccc(C(=NO)c2ccccc2)cc1)C1CC(c2cccnc2)=NO1` (single isomer, unassigned) [Compound 420], the “% Inhibition of T cell blast formation” value amounted to 39%.

With `O=C(Nc1ccc(C(O)c2ccccn2)cc1)C1CC(c2cccnc2)=NO1` (single isomer, unassigned) [Compound 525], the “% Inhibition of T cell blast formation” value was 74%.

As to `COc1cccc(C(=O)c2ccc(NC(=O)C3CC(c4cccnc4)=NO3)cc2)c1` (centres unmarked) [Compound 9], the “% Inhibition of T cell blast formation” value came to 71%.

As for `Cc1cccc(C(=O)c2ccc(NC(=O)C3CC(c4cccnc4)=NO3)cc2)c1` (centres unmarked) [Compound 10], the “% Inhibition of T cell blast formation” value is recorded as 75%.

With `O=C(c1ccc(NC(=O)C2CC(c3cccnc3)=NO2)cc1)c1cccc(F)c1` (centres unmarked) [Compound 12], the “% Inhibition of T cell blast formation” value came out at 83%.

As for `O=C(c1ccc(F)cc1)c1ccc(NC(=O)C2CC(c3cccnc3)=NO2)cc1` (centres unmarked) [Compound 13], the “% Inhibition of T cell blast formation” value was determined as 78%.

For `O=C(c1ccc(NC(=O)C2CC(c3cccnc3)=NO2)cc1)c1ccccc1Cl` (centres unmarked) [Compound 14], the “% Inhibition of T cell blast formation” value was 78%.

For `CC(C#N)(c1ccc(F)cc1)c1ccc(NC(=O)C2CC(c3cccnc3)=NO2)cc1F` (centres unmarked) [Compound 39], the “% Inhibition of T cell blast formation” value amounted to 67%.

`CC(C#N)(c1ccccc1)c1ccc(NC(=O)C2CC(c3cccnc3)=NO2)cc1` (centres unmarked) [Compound 45]: the “% Inhibition of T cell blast formation” value was determined as 78%.

Consider `COC(c1ccccc1)c1ccc(NC(=O)C2CC(c3cccnc3)=NO2)cc1.Cl` (centres unmarked) [Compound 52], for which the “% Inhibition of T cell blast formation” value turned out to be 89%.

Turning to `Nc1nc(-c2ccccc2)c(C(c2ccccc2)c2ccc(NC(=O)C3CC(c4cccnc4)=NO3)cc2)s1` (centres unmarked) [Compound 53], the “% Inhibition of T cell blast formation” value stood at 39%.

Turning to `O=C(Nc1ccc(C(NC2CC2)c2ccccc2)cc1)C1CC(c2cccnc2)=NO1` (centres unmarked) [Compound 90], the “% Inhibition of T cell blast formation” value turned out to be 33%.

Take `Cn1ncc2ccc(CNC(c3ccccc3)c3ccc(NC(=O)C4CC(c5cccnc5)=NO4)cc3)cc21` (centres unmarked) [Compound 94]: the “% Inhibition of T cell blast formation” value amounted to 44%.

Turning to `O=C(Nc1ccc(C(Nc2ccc3[nH]nnc3c2)c2ccccc2)cc1)C1CC(c2cccnc2)=NO1` (centres unmarked) [Compound 96], the “% Inhibition of T cell blast formation” value is 39%.

On to `O=C(Nc1ccc(C(NCc2ccncc2)c2ccccc2)cc1)C1CC(c2cccnc2)=NO1` (centres unmarked) [Compound 97], for which the “% Inhibition of T cell blast formation” value is reported as 58%.

Consider `O=C(Nc1ccc(C(Nc2ccccn2)c2ccccc2)cc1)C1CC(c2cccnc2)=NO1` (centres unmarked) [Compound 99], for which the “% Inhibition of T cell blast formation” value was found to be 83%.

`CC(C)NC(c1ccccc1)c1ccc(NC(=O)C2CC(c3cccnc3)=NO2)cc1` (centres unmarked) [Compound 100]: the “% Inhibition of T cell blast formation” value is given as 35%.

For the molecule `Cn1cnc2cc(NC(c3ccccc3)c3ccc(NC(=O)C4CC(c5cccnc5)=NO4)cc3)ccc21` (centres unmarked) [Compound 101], the “% Inhibition of T cell blast formation” value is 70%.

For `CN1CCC(NC(c2ccccc2)c2ccc(NC(=O)C3CC(c4cccnc4)=NO3)cc2)CC1` (centres unmarked) [Compound 102], the “% Inhibition of T cell blast formation” value is given as 66%.

Regarding `CN1CCC(CNC(c2ccccc2)c2ccc(NC(=O)C3CC(c4cccnc4)=NO3)cc2)CC1` (centres unmarked) [Compound 103], the “% Inhibition of T cell blast formation” value came to 82%.

For `O=C(Nc1ccc(C(NC2CCN(Cc3ccccc3)CC2)c2ccccc2)cc1)C1CC(c2cccnc2)=NO1` (centres unmarked) [Compound 104], the “% Inhibition of T cell blast formation” value is 60%.

For the molecule `COc1cc(S(N)(=O)=O)ccc1NC(c1ccccc1)c1ccc(NC(=O)C2CC(c3cccnc3)=NO2)cc1` (centres unmarked) [Compound 119], the “% Inhibition of T cell blast formation” value is 54%.

For the molecule `CCOC(=O)NC(c1ccccc1)c1ccc(NC(=O)C2CC(c3cccnc3)=NO2)cc1` (centres unmarked) [Compound 131], the “% Inhibition of T cell blast formation” value is 95%.

As to `CN1CCC(N(C)CC(=O)NC(c2ccccc2)c2ccc(NC(=O)C3CC(c4cccnc4)=NO3)cc2)CC1` (centres unmarked) [Compound 146], the “% Inhibition of T cell blast formation” value is listed as 95%.

With `CCCC(=O)NC(c1ccccc1)c1ccc(NC(=O)C2CC(c3cccnc3)=NO2)cc1` (centres unmarked) [Compound 156], the “% Inhibition of T cell blast formation” value is given as 56%.

With `O=C(Cc1ccccc1)NC(c1ccccc1)c1ccc(NC(=O)C2CC(c3cccnc3)=NO2)cc1` (centres unmarked) [Compound 166], the “% Inhibition of T cell blast formation” value came to 66%.

In the case of `CCOc1ccc(C)c(NC(c2ccccc2)c2ccc(NC(=O)C3CC(c4cccnc4)=NO3)cc2)c1` (centres unmarked) [Compound 172], the “% Inhibition of T cell blast formation” value stood at 35%.

`CC(=O)Nc1ccccc1NC(c1ccccc1)c1ccc(NC(=O)C2CC(c3cccnc3)=NO2)cc1` (centres unmarked) [Compound 174]: the “% Inhibition of T cell blast formation” value came to 42%.

Regarding `Cc1cccc(NC(c2ccccc2)c2ccc(NC(=O)C3CC(c4cccnc4)=NO3)cc2)c1C` (centres unmarked) [Compound 175], the “% Inhibition of T cell blast formation” value is 42%.

Regarding `NC(=O)c1ccccc1NC(c1ccccc1)c1ccc(NC(=O)C2CC(c3cccnc3)=NO2)cc1` (centres unmarked) [Compound 192], the “% Inhibition of T cell blast formation” value is 72%.

For the molecule `O=C(Nc1ccc(C(Nc2ccccc2O)c2ccccc2)cc1)C1CC(c2cccnc2)=NO1` (centres unmarked) [Compound 203], the “% Inhibition of T cell blast formation” value is 62%.

For the molecule `NC(c1ccccc1)c1ccc(NC(=O)[C@@H]2CC(c3cccnc3)=NO2)cc1` (stereo partly drawn) [Compound 205, [5S-(A)]-N-[4-(aminophenylmethyl)phenyl]4,5-dihydro-3-(3-pyridinyl)-5-isoxazolecarboxamide], the “% Inhibition of T cell blast formation” value was determined as 73%.

Staying with this assay, now noted: Test Dose 1 × 10^−7 (unit not given), 72 hours, mean where multiple measurements.
In the case of `O=C(Nc1ccc(C(=NO)c2ccccc2)cc1)C1CC(c2cccnc2)=NO1` (single isomer, unassigned) [Compound 419], the “% Inhibition of T cell blast formation” value is listed as 86%.

For the molecule `O=C(c1ccc(NC(=O)C2CC(c3cccnc3)=NO2)cc1)c1ccccn1` (single isomer, unassigned) [Compound 489], the “% Inhibition of T cell blast formation” value is given as 80%.

Staying with this assay, now noted: Test Dose 3 × 10^−7 (unit not given), 72 hours, mean where multiple measurements.
As for `N#CC(OC(N)=O)(c1ccccc1)c1ccc(NC(=O)C2CC(c3cccnc3)=NO2)cc1` (racemic) [Compound 75, (±)-[cyano[4-[[[4,5-dihydro-3-(3-pyridinyl)-5-isoxazolyl]carbonyl]amino]phenyl]phenylmethyl]carbamate], the “% Inhibition of T cell blast formation” value stood at 67%.

`O=C(/C=C/c1c(F)cccc1F)c1ccc(NC(=O)C2CC(c3cccnc3)=NO2)cc1` (racemic) [Compound 468]: the “% Inhibition of T cell blast formation” value was 61%.

As to `O=C(/C=C/c1ccc2c(c1)OCO2)c1ccc(NC(=O)C2CC(c3cccnc3)=NO2)cc1` (racemic) [Compound 469], the “% Inhibition of T cell blast formation” value is 65%.

Take `O=C(/C=C/c1ccccc1C(F)(F)F)c1ccc(NC(=O)C2CC(c3cccnc3)=NO2)cc1` (racemic) [Compound 471]: the “% Inhibition of T cell blast formation” value was 54%.

Regarding `O=C(/C=C/c1ccccc1F)c1ccc(NC(=O)C2CC(c3cccnc3)=NO2)cc1` (racemic) [Compound 473], the “% Inhibition of T cell blast formation” value was determined as 72%.

As to `Cc1ccccc1/C=C/C(=O)c1ccc(NC(=O)C2CC(c3cccnc3)=NO2)cc1` (racemic) [Compound 475], the “% Inhibition of T cell blast formation” value was 56%.

Take `O=C(/C=C/c1c(F)cccc1Cl)c1ccc(NC(=O)C2CC(c3cccnc3)=NO2)cc1` (racemic) [Compound 476]: the “% Inhibition of T cell blast formation” value was determined as 67%.

For the molecule `COc1ccccc1/C=C/C(=O)c1ccc(NC(=O)C2CC(c3cccnc3)=NO2)cc1` (racemic) [Compound 477], the “% Inhibition of T cell blast formation” value was 63%.

As for `O=C(/C=C/c1ccccc1)c1ccc(NC(=O)C2CC(c3cccnc3)=NO2)cc1` (racemic) [Compound 478], the “% Inhibition of T cell blast formation” value amounted to 70%.

In the case of `Nc1ccc(C(=O)c2ccc(NC(=O)C3CC(c4cccnc4)=NO3)cc2)cc1` (centres unmarked) [Compound 17], the “% Inhibition of T cell blast formation” value is given as 53%.

As to `O=C(Nc1ccc(C(O)(Cc2cccnc2)c2ccccc2)cc1)C1CC(c2cccnc2)=NO1` (centres unmarked) [Compound 73], the “% Inhibition of T cell blast formation” value is on record as 67%.

`O=C(Nc1ccc(C(Nc2ccccc2)c2ccccc2)cc1)C1CC(c2cccnc2)=NO1` (centres unmarked) [Compound 113]: the “% Inhibition of T cell blast formation” value was 37%.

On to `CN(CCC1OCCO1)C(c1ccccc1)c1ccc(NC(=O)C2CC(c3cccnc3)=NO2)cc1` (centres unmarked) [Compound 122], for which the “% Inhibition of T cell blast formation” value worked out at 36%.

Regarding `O=C(NC(c1ccccc1)c1ccc(NC(=O)C2CC(c3cccnc3)=NO2)cc1)c1c(F)cccc1F` (centres unmarked) [Compound 158], the “% Inhibition of T cell blast formation” value stood at 64%.

Take `Cc1cc(NC(c2ccccc2)c2ccc(NC(=O)C3CC(c4cccnc4)=NO3)cc2)no1` (centres unmarked) [Compound 162]: the “% Inhibition of T cell blast formation” value is listed as 46%.

For the molecule `CN(CC(N)=O)C(c1ccccc1)c1ccc(NC(=O)C2CC(c3cccnc3)=NO2)cc1` (centres unmarked) [Compound 163], the “% Inhibition of T cell blast formation” value turned out to be 56%.
